# Source: article PMC12948223, “HSP70 Interactome‐Mediated Proteolysis Targeting Chimera (HSP70‐PROTAC) for Ferroptosis‐Driven Cancer Treatment” (Advanced Science, 2025)
# Columns and labels:
# [1] = Relative drug biodistribution in HT1080 xenograft mice (LC-MS/MS); type: in vivo, nude mice; settings: 50 mg/kg, 12 h, n = 1
# Excerpt: (§1) In addition, the tumor samples from the six treatment groups were randomly collected and probed for the levels of GPX4, and 4‐HNE (4‐hydroxynonenal, a lipid peroxidation marker) by immunohistochemistry (IHC) staining (Figure 7G). […] Collectively, the HSP70‐PROTAC GDAz‐3 has been confirmed as an effective ferroptosis‐inducing agent, which can degrade GPX4 both in vitro and in vivo via UPS and CMA dual processes.
# GDAz‐3 was intravenously injected into an HT1080‐bearing xenograft tumor mouse model at 50 mg kg^−1. After 12 h of treatment, samples of tumor tissue and major organs, including the heart, liver, spleen, lung, kidney, and intestine, were collected. After weighing, these samples were processed into homogenates, and 500 µL of cold methanol was added. After thorough mixing, the supernatant was generated by centrifugation (4 °C, 12 000 rpm, 15 min), and then analyzed by liquid chromatography‐tandem mass spectrometry (Agilent 6495C Triple Quadrupole LC/MS). In brief, a volume of 1 µL from each sample was extracted and injected into a Waters Acquity Premmier BEH C18 (2.1 × 50 mm, 1.7 µm) column. The solvent delivery module was used to deliver an HPLC gradient of 20–95% B over 7 min (A: 0.1% formic acid in water, B: acetonitrile) at a flow rate of 0.3 mL min^−1. […] The quantification was performed based on peak area. […]
# GPX4 [2] = target: T1, GPX4 (Homo sapiens, UniProt P36969); test: GPX4 and 4-HNE in HT1080 xenograft tumor tissue (IHC, western blot); type: in vivo, nude mice; design: from tissue; host or cells: HT1080 xenograft tumour tissue from BALB/c nude mice
# T1 sequence (P36969 1-170 isoform P36969-2): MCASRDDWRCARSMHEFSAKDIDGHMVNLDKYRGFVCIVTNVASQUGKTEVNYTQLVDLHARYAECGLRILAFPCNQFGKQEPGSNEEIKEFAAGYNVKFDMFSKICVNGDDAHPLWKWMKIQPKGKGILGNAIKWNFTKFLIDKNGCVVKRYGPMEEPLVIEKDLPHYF
# Excerpt: as §1
# The experimental procedures of the animal experiments were permitted by the Hangzhou Institute of Medicine (HIM), Chinese Academy of Sciences (AP2024‐07‐0010). Male BALB/c nude mice (6 weeks old) were housed under pathogen‐free conditions, maintained at a constant room temperature, and fed standard rodent chow and water. An HT1080 fibrosarcoma xenograft model in nude mice was established through subcutaneous transplantation. When the tumors emerged, the mice were randomly divided into six groups with six mice in each group: […], including the vehicle group, and each of the two inhibitor‐treated groups (ML162 and apoptozole) at 30 mg kg^−1, and their combinations. […] Body weight and tumor size were measured every other day, and the tumor volume and body weight were recorded every other day after drug treatment. After treatment, the animals were euthanized by cervical dislocation, and the tumor bulks were peeled off and weighed. The organ tissues (tumor, heart, liver, spleen, lung, and kidney) were harvested and fixed with 4% paraformaldehyde for hematoxylin‐eosin (H&E) and immunohistochemistry (IHC) staining. In addition, the expression of GPX4 in tumor samples was analyzed in vehicle‐ and GDAz‐3‐treated groups by western blot assay.
# [3] = Pharmacokinetic study in ICR mice; type: in vivo; settings: mouse; male ICR mice, IP, 30 mg/kg, plasma
# Method: To evaluate the in vivo pharmacokinetic (PK) profile of the GDAz‐3 and explore its therapeutic potential, a single intraperitoneal (IP) injection (30 mg kg^−1) was conducted in male ICR mice. Plasma samples were collected at predetermined time points and analyzed using LC‐MS/MS.
# The tested compound GDAz‐3 was IP administered to ICR mice (male, n = 3 per time‐point). Blood samples were collected at 0.0833, 0.25, 0.5, 1, 2, 4, 8, and 24 h after IP administration (30 mg kg^−1) and then centrifuged at 6800 g for 6 min at 4 °C to obtain plasma, which were stored at −80 °C until analysis The compound concentrations in plasma were determined by liquid chromatography‐tandem mass spectrometry (API5000 LC‐MS/MS).
# GPX4 [4] = target: T2, GPX4 (Homo sapiens, UniProt P36969); test: SPR binding to GPX4 recombinant protein
# T2 construct: purchased Cayman 26 906
# T2 sequence (P36969 28-197 limits assumed): T1 sequence (P36969 1-170 isoform P36969-2)
# Method: (§2) The SPR data was generated by our Shared Instrumentation Core Facility at the Hangzhou Institute of Medicine (HIM), Chinese Academy of Sciences. The in vitro binding affinity of compound GDAz‐3 to recombinant proteins (Hsc70, MedChemExpress, #HY‐P73915A; GPX4, Cayman, Item No. 26 906) was evaluated using a Biacore 8K system (Cytiva (GE)) with the method of LMW multi‐cycle kinetics/affinity. Pipelines and chips were flushed with PBS (pH 7.4) running buffer, and then, human Hsc70 was immobilized on a CM5 sensor chip. Analysis was performed at a flow rate of 30 µL min^−1 at 25 °C with the injection of incremental concentrations of compounds dissolved in buffer solution (the final concentration of DMSO was 5%). For ternary‐complex binding measurements, Hsc70 was immobilized on a CM5 sensor chip, and compound GDAz‐3 at a concentration of 1 µM was preincubated with GPX4. The binding and dissociation durations were recorded as response unit values for 120 and 120 s in succession, respectively. Finally, the data were analyzed by Biacore evaluation software with the method of LMW multi‐cycle kinetics/affinity.
# human Hsc70 = target: T3, human Hsc70 (Homo sapiens, UniProt P11142); test: SPR binding to immobilized Hsc70 (binary); settings: immobilized Hsc70, 25 °C
# T3 construct: purchased MedChemExpress HY-P73915A
# Method: as §2
# [5] = 30 and 60 mg/kg, vs vehicle group
# T3 sequence (P11142 whole entry): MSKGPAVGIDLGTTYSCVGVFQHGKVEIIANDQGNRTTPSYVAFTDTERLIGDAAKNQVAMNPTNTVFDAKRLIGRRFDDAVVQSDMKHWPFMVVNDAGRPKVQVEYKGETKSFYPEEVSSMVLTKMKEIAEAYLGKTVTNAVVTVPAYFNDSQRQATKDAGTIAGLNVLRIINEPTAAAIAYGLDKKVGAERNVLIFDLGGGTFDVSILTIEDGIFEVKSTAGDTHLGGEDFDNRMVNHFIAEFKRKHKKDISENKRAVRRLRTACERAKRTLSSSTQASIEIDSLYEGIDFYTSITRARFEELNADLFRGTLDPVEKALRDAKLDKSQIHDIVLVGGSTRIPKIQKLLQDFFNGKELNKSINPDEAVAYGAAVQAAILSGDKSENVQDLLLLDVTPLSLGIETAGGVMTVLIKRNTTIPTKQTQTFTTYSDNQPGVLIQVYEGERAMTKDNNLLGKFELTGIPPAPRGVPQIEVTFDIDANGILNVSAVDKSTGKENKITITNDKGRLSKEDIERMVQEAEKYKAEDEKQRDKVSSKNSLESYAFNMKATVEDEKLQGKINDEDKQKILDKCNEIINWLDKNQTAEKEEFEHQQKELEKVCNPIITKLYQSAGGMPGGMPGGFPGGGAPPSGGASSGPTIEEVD
smiles,measurement,setting,value
"COc1ccc(-c2nc(-c3cc(C(F)(F)F)cc(C(F)(F)F)c3)n(Cc3ccc(C(=O)NCCOCCOCCOCCn4cc(COc5ccc(N(C(=O)CCl)C(C(=O)NCCc6ccccc6)c6cccs6)cc5Cl)nn4)cc3)c2-c2ccc(OC)cc2)cc1 (stereo not drawn) [GDAz-3, 4-((2-(3,5-bis(trifluoromethyl)phenyl)-4,5-bis(4-methoxyphenyl)-1H-imidazol-1-yl)methyl)-N-(2-(2-(2-(2-(4-((2-chloro-4-(2-chloro-N-(2-oxo-2-(phenethylamino)-1-(thiophen-2-yl)ethyl)acetamido)phenoxy)methyl)-1H-1,2,3-triazol-1-yl)ethoxy)ethoxy)ethoxy)ethyl)benzamide]",Concentration in tumor tissue relative to other tissues,[1],significantly higher than that in other tissues
same,4-HNE levels in tumor (IHC),GPX4 [2]; [5],increase in 4‐HNE levels
same,GPX4 levels in tumor (IHC),GPX4 [2]; [5],reduction in GPX4 levels
same,GPX4 protein in HT1080 tumor tissue (western blot),GPX4 [2]; single IP injection 50 mg/kg,"reduce the level of GPX4 protein over the vehicle control at the 12, 24, and 36 h time points"
same,AUC(0-inf),[3],3.14 µg·h/mL
same,AUC(0-t),[3],2.45 ± 0.939 µg·h/mL
same,Cmax,[3],0.201 µg/mL
same,MRT inf,[3],15.5 ± 1.31 h
same,Tmax,[3],4 h
same,half-life,[3],10.2 h
same,Kd,GPX4 [4],1.17 µM
same,Kd,human Hsc70,0.018 µM
